The record followed here is US5185352A, “Alkoxy-4(1H)-pyridone derivatives, processes for the preparation thereof and pharmaceutical compositions containing them” (Goedecke Aktiengesellschaft, priority 1988, dated 1993).

Experiment [1] deals with Noradrenaline-Precontracted Aorta. The experiment can be described thus: Endothelium-dependent smooth muscle relaxation of noradrenaline-precontracted rabbit aorta rings in an organ bath. Conditions: Oryctolagus cuniculus, noradrenaline 3 × 10^-7 mol/L. As for the experimental part: Rabbit aorta rings are fixed in an organ bath filled with physiological salt solution (Krebs-Henseleit) between L-shaped wires. The solution is gassed with carbogen. Contractions are initiated by 3×10^-7 noradrenaline. When the tension has reached a stable plateau, compounds of the instant invention are added. The effect of the compounds first is tested on organ preparation with functioning endothelium. In an additional experiment in order to test whether the relaxation is endothelium-dependent the compounds are tested with aorta rings with damaged endothelium. For an endothelium-dependent relaxation, effected by the endothelium-derived relaxating factor (EDRF), the following characteristics are required: absence of the effect in preparations with damaged endothelium, no inhibition of the relaxation by indomethazine and inhibition of the relaxation by NDGA (nordihydro-guaiaretic acid), methylene blue and gossypol. These criteria are completely met by the compounds listed in Table II, and one can conclude, that the compounds of the instant invention act in an unexpected manner by the release of EDRF, and thereby relax vascular smooth muscle.

Experiment [2] deals with calcium- and phospholipid-dependent protein kinase (PKC). The experiment is described as follows: Inhibition of the activity of protein kinase C (incorporation of P^32-labelled phosphate into histone H-1). Format: biochemical. Conditions: PKC enriched from rat brain; histone H-1 substrate; 5 min, 30° C.; pH 7.5. An excerpt: For the clarification of the inhibiting influence of compounds of formula I according to the present invention on the calcium- and phospholipid-dependent protein kinase (PKC), this enzyme activity was enriched from rat brain. Using the purification steps described in the literature (J. Biol. Chem., 260, 15718-15722/1985), in the case of a purification consisting of two steps, there was utilized the property of the enzyme to bind to cell membranes in the presence of calcium and to be dissolved off again by calcium chelators (EGTA). In the first enrichment step, there took place the binding of the PKC to membranes of the rat brain and in the second step on so-called inside-out vesicles or erythrocytes. After dissolving off from the erythrocyte membranes and rebuffering, the PKC preparation was present in 10 mM HEPES, 1 mM DTT, 0.1% PEG 20000, pH 7.5. Under these conditions, it could be stored at -70° C. for several months without loss of activity.
The activity of the enzyme was determined via the incorporation of P^32 -labelled phosphate into the protein histone H-1 (Sigma Type III) which can be phosphorylated by PKC.
The test thereby contains the following components: 50 mM HEPES-NaOH (pH 7.5), 5 mM magnesium chloride, 1 mM DTT, 4 μm. free calcium ions, 10 μMaTP, 1 μg phosphatidylserine, 0.2 μg 1,2-diolein, as well as 40 μg histone H-1 and optionally the test substance.
The batch is preincubated for 4 minutes at 30° C. and the reaction then started by the addition of 5 nM PKC. After incubating for 5 minutes at 30° C., the reaction is stopped with 10% TCA and the samples then filtered off. The phosphate incorporation is determined by Cerenkov counting in a scintillation counter. The kinase activity measured in the absence of the test substance was, in each case, taken as being 100% and the inhibiting action of the compounds of formula I referred thereto as percentages.

Where [3] appears, read: damaged endothelium, read-out: Relaxation of Noradrenaline-Precontracted Aorta, EC50, Damaged Endothelium.
Where [4] appears, read: functioning endothelium, read-out: Relaxation of Noradrenaline-Precontracted Aorta, EC50, Functioning Endothelium.

A word on the EC50: it is the midpoint of the concentration-response curve. One may read the IC50 as the concentration needed to halve the response being measured.

SMILES strings stand for the structures. Structures can show the parent of a compound that is named as a salt. Where two headings read alike, the source gives them in different places.

On to `CC(=O)OCC[N+](C)(C)C` [Acetylcholine, reference compound], for which the EC50 is over 100000 nM in experiment [1] (setting [3]) and 30 nM in experiment [1] (setting [4]).
Consider `CCCCCCCCCCCCCCCCCCOc1cn(Cc2ccccc2)c(CNCCCN(C)C)cc1=O` [Example 54, 1-Benzyl-2-[N-(3-dimethylaminopropyl)-aminomethyl]-5-octadecyloxy-4(1H)-pyridone dioxalate], for which, in experiment [2], the IC50 was 1400 nM. Also, the concentration for a half-maximal effect (EC50) in experiment [1] (setting [3]) is over 100000 nM; in experiment [1] (setting [4]), 15000 nM.
On the same counts, the results for `CCCCCCCCCCCCCCCCCCOc1cn(Cc2ccc(Cl)cc2)c(CNCCCN(C)C)cc1=O` [Example 69, 1-(4-Chlorobenzyl)-2-[N-(3-dimethylamino-propyl)aminomethyl]-5-octadecyloxy-4(1H)-pyridone difumarate 1.25 hydrate] are 1500 nM, over 100000 nM and 30000 nM.
In the case of `CCCCCCCCCCCCCCCCCCOc1cn(Cc2ccccc2)c(CNCCCN(C)Cc2ccccc2)cc1=O` [Example 71, 1-Benzyl-2-[N-(3-N-benzyl-N-methylaminopropyl)aminomethyl]-5-octadecyloxy-4(1H)-pyridone difumarate], the IC50 in experiment [2] was 1800 nM. The EC50 in experiment [1] (setting [3]) is over 100000 nM; in experiment [1] (setting [4]) it was 3000 nM.
As for `CCCCCCCCCCCCCCCCCCOc1cn(Cc2ccccc2)c(CN2CCN(Cc3ccccc3)CC2)cc1=O` [Example 88, 1-[(1-Benzyl-5-octadecyloxy-4(1H)-pyridon-2-yl)methyl]-4-benzylpiperazine], the IC50 in experiment [2] came to 3000 nM. Moreover, the EC50 in experiment [1] (setting [3]) is over 100000 nM; in experiment [1] (setting [4]), 3400 nM.
On the same counts, the results for `CCCCCCCCCCCCCCCCCCOc1cn(Cc2ccccc2)c(CN2CCC(CN)(c3ccccc3)CC2)cc1=O` [Example 101, 1-[(1-Benzyl-5-octadecyloxy-4(1H)-pyridon-2-yl)methyl]-4-aminomethyl-4-phenylpiperidine trihydrochloride] are 1500 nM, over 100000 nM and 20000 nM.
With `CCCCCCCCCCCCCCCCCCOc1cn(Cc2ccccc2)c(COCCCN(C)C)cc1=O` [Example 103, 1-Benzyl-2-(3-dimethylaminopropoxymethyl)-5-octadecyloxy-4(1H)-pyridone dihydrochloride], the IC50 in experiment [2] came out at 4000 nM.
In the case of `CCCCCCCCCCCCCCCCCCOc1cn(CCC)c(COCCCN(C)C)cc1=O` [Example 105, 2-(3-Dimethylaminopropoxymethyl)-5-octadecyloxy-1-propyl-4(1H)-pyridone dihydrochloride 3/4 hydrate], the IC50 in experiment [2] was determined as 2000 nM.
On the same count and under the same terms, to `CCCCCCCCCCCCCCCCCCOc1cn(Cc2ccc(C)cc2)c(COCCCN(C)C)cc1=O` [Example 106, 2-(3-Dimethylaminopropoxymethyl)-1-(4-methylbenzyl)-5-octadecyloxy-4(1H)-pyridone dihydrochloride sesquihydrate] belongs 2400 nM; to `CCCCCCCCCCCCCCCCCCOc1cn(Cc2ccc(OC)cc2)c(COCCCN(C)C)cc1=O` [Example 107, 2-(3-Dimethylaminopropoxymethyl)-1-(4-methoxybenzyl)-5-octadecyloxy-4(1H)-pyridone dihydrochloride 1/4 hydrate], 2900 nM.
As to `CCCCCCCCCCCCCCCCCCOc1cn(CC2CCCCC2)c(COCCCN(C)C)cc1=O` [Example 108, 1-Cyclohexylmethyl-2-(3-dimethylaminopropoxymethyl)-5-octadecyloxy-4(1H)-pyridone oxalate], in experiment [2], the IC50 was determined as 2900 nM.
Still for that read-out and setting: in the case of `CCCCCCCCCCCCCCCCCCOc1cn(Cc2ccc(Cl)cc2)c(COCCCN(C)C)cc1=O` [Example 109, 1-(4-Chlorobenzyl)-2-(3-dimethylaminopropoxymethyl)-5-octadecyloxy-4(1H)-pyridone dihydrochloride 2.5 hydrate] it was 2600 nM; in that of `CCCCCCCCCCCCCCCCCCOc1cn(Cc2ccccc2)c(CCC(=O)OC)cc1=O` [Example 114, Methyl 3-[1-benzyl-5-octadecyloxy-4(1H)-pyridon-2-yl]-propionate], 9000 nM; in that of `CCCCCCCCCCCCCCCCCCOc1cn(Cc2ccccc2)c(CCC(N)=O)cc1=O` [Example 116, 3-[1-benzyl-5-octadecyloxy-4(1H)-pyridon-2-yl]-propionic acid amide], 9000 nM.
